From ChEMBL document CHEMBL5614401 (Eur J Med Chem, 2024)
Activity calls are given as the source filed them. The calls are words filed in the database; no cut-off is given here.

How the values were obtained:
[1] = (§1) Renal toxicity in potassium oxonate-induced male Kunming mouse model assessed as reduction in BUN level in serum at 10 mg/kg,po via gavage administered 1 hr post-potassium oxonate challenge and measured after 7 days on day 7 potassium oxonate injected after 12 hrs fasting and measured followed by 1.5 hrs of compound administration by biochemical analyzer; assay type: organism-based; settings: in vivo, 168 h, time 7 day
[2] = as §1, with “effect on kidney damage” for “reduction in BUN level in serum”, “administration” for “administration by biochemical analyzer”; assay type: organism-based; settings: in vivo, 168 h, time 7 day
HK-2 [3] = test: Cytotoxicity against human HK-2 cells assessed as cell viability at 100 uM incubated for 48 hrs by MTT assay; assay type: toxicity, cell-based; settings: hk-2, 48 h
Mus musculus [4] = test: (§2) Anti-hyperuricemic activity against potassium oxonate-induced male Kunming mouse model assessed as alleviation of shrinkage in kidney at 10 mg/kg, po via gavage administered 1 hr post-potassium oxonate challenge and measured after 7 days on day 7 potassium oxonate injected after 12 hrs fasting and measured followed by 1.5 hrs of compound administration by H and E staining based analysis; assay type: functional, organism-based; settings: time 7.0 day
[5] = biological target: T1, Solute carrier family 22 member 12 (Homo sapiens, UniProt Q96S37); test: Inhibition of human URAT1 transfected in HEK293 cells by measuring 14C-uric acid uptake preincubated for 30 mins followed by 14--uric acid addition and measured after 15 mins by liquid scintillation counter analysis; assay type: cell-based
T1 sequence (Q96S37 whole entry): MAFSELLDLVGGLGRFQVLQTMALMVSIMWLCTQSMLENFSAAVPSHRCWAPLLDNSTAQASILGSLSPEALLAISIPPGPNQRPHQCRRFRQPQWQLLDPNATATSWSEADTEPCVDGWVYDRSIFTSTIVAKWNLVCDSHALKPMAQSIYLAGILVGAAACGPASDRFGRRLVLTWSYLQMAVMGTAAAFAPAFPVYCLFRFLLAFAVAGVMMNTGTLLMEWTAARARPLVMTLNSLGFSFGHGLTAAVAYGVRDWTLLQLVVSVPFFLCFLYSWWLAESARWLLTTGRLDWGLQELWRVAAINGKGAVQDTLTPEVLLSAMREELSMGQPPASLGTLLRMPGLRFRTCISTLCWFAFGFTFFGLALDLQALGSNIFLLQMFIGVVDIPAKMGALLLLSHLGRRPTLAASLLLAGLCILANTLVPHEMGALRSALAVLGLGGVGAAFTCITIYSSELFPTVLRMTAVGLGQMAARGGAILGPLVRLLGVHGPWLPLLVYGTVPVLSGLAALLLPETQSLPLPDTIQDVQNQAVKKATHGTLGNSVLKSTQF

[6] = biological target: T2, Solute carrier family 2, facilitated glucose transporter member 9 (Homo sapiens) (UniProt Q9NRM0); test: Inhibition of GLUT9 (unknown origin) overexpressed in uric acid-induced HEK293 cells at 25 uM by patch clamp analysis relative to control; assay type: cell-based
T2 sequence (whole entry): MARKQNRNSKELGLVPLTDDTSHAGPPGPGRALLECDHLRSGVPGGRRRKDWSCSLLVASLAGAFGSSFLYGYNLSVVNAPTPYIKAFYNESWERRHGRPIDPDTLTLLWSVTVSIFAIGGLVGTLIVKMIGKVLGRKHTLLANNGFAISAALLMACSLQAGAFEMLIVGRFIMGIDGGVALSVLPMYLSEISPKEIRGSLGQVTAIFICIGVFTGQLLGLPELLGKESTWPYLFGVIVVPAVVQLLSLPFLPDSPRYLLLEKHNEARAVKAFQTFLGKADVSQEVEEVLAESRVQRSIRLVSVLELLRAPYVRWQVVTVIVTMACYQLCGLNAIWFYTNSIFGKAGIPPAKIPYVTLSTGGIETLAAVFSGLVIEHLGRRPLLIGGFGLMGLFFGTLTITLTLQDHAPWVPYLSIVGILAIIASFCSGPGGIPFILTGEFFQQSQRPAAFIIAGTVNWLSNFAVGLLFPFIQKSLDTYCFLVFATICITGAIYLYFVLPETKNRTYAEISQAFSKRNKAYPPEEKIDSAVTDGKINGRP

[7] = as §1, with “CR” for “BUN”; assay type: organism-based; settings: in vivo, 168 h, time 7 day
Mus musculus [8] = test: as §2, with “increase” for “alleviation of shrinkage”, “urine uric acid level” for “kidney”, “(reference value: 481.6 microM)” for “by H and E staining based analysis”; assay type: functional
Mus musculus [9] = test: as §2, with “casts formation” for “shrinkage”; assay type: functional, organism-based; settings: time 7.0 day
Mus musculus [10] = test: as §2, with “renal tubule dilatation” for “shrinkage in kidney”; assay type: functional, organism-based; settings: time 7.0 day
Mus musculus [11] = test: as §2, with “glomerular ischemia” for “shrinkage”; assay type: functional, organism-based; settings: time 7.0 day
HK-2 [12] = test: Cytotoxicity against human HK-2 cells assessed as cell viability at <100 uM incubated for 24 hrs by MTT assay; assay type: toxicity, cell-based; settings: hk-2, 24 h
Mus musculus [13] = test: as §2, with “reduction” for “alleviation of shrinkage”, “serum uric acid level” for “kidney”, “administration” for “administration by H and E staining based analysis”; assay type: functional; settings: time 7 day
[14] = biological target: T1, Solute carrier family 22 member 12; test: Inhibition of human URAT1 transfected in HEK293 cells by measuring 14C-uric acid uptake at 5 uM preincubated for 30 mins followed by 14--uric acid addition and measured after 15 mins by liquid scintillation counter analysis relative to control; assay type: cell-based; settings: 0.25 h, time 45 min
[15] = Half life in male Sprague-Dawley rat at 10 mg/kg, po measured after 24 hrs by LC-MS/MS analysis; assay type: ADME, organism-based; settings: in vivo
[16] = Tmax in male Sprague-Dawley rat at 10 mg/kg, po measured after 24 hrs by LC-MS/MS analysis; assay type: ADME, organism-based; settings: in vivo
[17] = MRT (0 to infinity) in male Sprague-Dawley rat at 10 mg/kg, po measured after 24 hrs by LC-MS/MS analysis; assay type: ADME, organism-based; settings: in vivo
[18] = Cmax in male Sprague-Dawley rat at 10 mg/kg, po measured after 24 hrs by LC-MS/MS analysis; assay type: ADME, organism-based; settings: in vivo
[19] = AUC (0 to infinity) in male Sprague-Dawley rat at 10 mg/kg, po measured after 24 hrs by LC-MS/MS analysis; assay type: ADME, organism-based; settings: in vivo
[20] = Cytotoxicity against human HK-2 cells assessed as cell viability at 100 uM incubated for 48 hrs by MTT assay relative to control; assay type: toxicity, cell-based; settings: read-out: Activity
[21] = biological target: T3, Solute carrier family 2, facilitated glucose transporter member 9 (Homo sapiens, UniProt Q9NRM0); test: Inhibition of GLUT9 (unknown origin) overexpressed in uric acid-induced HEK293 cells by patch clamp analysis; assay type: cell-based
T3 sequence (Q9NRM0 whole entry): T2 sequence (whole entry)

SMILES: C/C(=C\Cc1c(O)ccc2c1OC(c1csc3ccccc13)CC2=O)C(=O)O (stereo not given)
- Activity [1]: Non-Toxic
- Activity [2]: Non-Toxic
- Activity (HK-2 [3]): Non-Toxic
- Activity (Mus musculus [4]): Active
- IC50 [5]: 230 nM
- inhibition [6]: 8.33%
- Activity [7]: Non-Toxic
- Activity (Mus musculus [8]; time 7 day): 599.6 µM
- Activity (Mus musculus [9]): Active
- Activity (Mus musculus [10]): Active
- Activity (Mus musculus [11]): Active
- Activity (HK-2 [12]): Toxic
- Activity (Mus musculus [13]): 392.02 µM

SMILES: CC(C)=CCc1c(O)ccc2c1OC(c1ccc(Br)cc1)CC2=O (stereo not given)
- inhibition at 5 µM [14]: 32.2%

SMILES: C/C(=C\Cc1c(O)ccc2c1OC(c1ccc(Cl)cc1)CC2=O)C(=O)O (stereo not given)
- IC50 [5]: 2860 nM

SMILES: O=C(O)C/C=C/Cc1c(O)ccc2c1OC(c1csc3ccccc13)CC2=O (stereo not given)
- IC50 [5]: 650 nM

SMILES: O=C(O)/C=C/Cc1cccc2c1OC(c1ccc(Br)c3ccccc13)CC2=O (stereo not given)
- IC50 [5]: 730 nM

SMILES: O=C(O)CCCc1c(O)ccc2c1OC(c1cccs1)CC2=O (stereo not given)
- IC50 [5]: 2410 nM

SMILES: O=C(O)/C=C/Cc1cccc2c1OC(c1ccc(O)cc1)CC2=O (stereo not given)
- IC50 [5]: 4240 nM

SMILES: C/C(=C\Cc1c(O)ccc2c1OC(c1ccc(Br)cc1)CC2=O)C(=O)O (stereo not given)
- IC50 [5]: 830 nM

SMILES: C/C(=C\Cc1cccc2c1OC(c1cc3ccccc3s1)CC2=O)C(=O)O (stereo not given)
- IC50 [5]: 1640 nM

SMILES: C/C(=C\Cc1cccc2c1OC(c1csc3ccccc13)CC2=O)C(=O)O (stereo not given)
- IC50 [5]: 950 nM

SMILES: C/C(=C\Cc1cccc2c1OC(c1cc(Br)cs1)CC2=O)C(=O)O (stereo not given)
- IC50 [5]: 980 nM

SMILES: C/C(=C\Cc1c(O)ccc2c1OC(c1ccc(Br)c3ccccc13)CC2=O)C(=O)O (stereo not given)
- Activity [1]: Non-Toxic
- half-life [15]: 4.66 h
- Activity [2]: Non-Toxic
- Tmax [16]: 1.5 h
- Activity (HK-2 [3]): Non-Toxic
- MRT inf [17]: 7.54 h
- Activity (Mus musculus [4]): Active
- IC50 [5]: 190 nM
- inhibition [6]: 8.21%
- Activity [7]: Non-Toxic
- Activity (Mus musculus [8]; time 7.0 day): Active
- Activity (Mus musculus [9]): Active
- Cmax [18]: 1380 ng/mL
- Activity (Mus musculus [10]): Active
- Activity (Mus musculus [11]): Active
- AUC(0-inf) [19]: 8270 ng·h/mL
- Activity (HK-2 [12]): Toxic
- Activity (Mus musculus [13]): 397.87 µM

SMILES: C/C(=C\Cc1cccc2c1OC(c1ccc(Br)c3ccccc13)CC2=O)C(=O)O (stereo not given)
- Activity [1]: Non-Toxic
- half-life [15]: 7.88 h
- Activity [2]: Non-Toxic
- Tmax [16]: 1.15 h
- viability at 48 h, 100 µM [20]: 62.1%
- MRT inf [17]: 10.2 h
- Activity (Mus musculus [4]): Active
- IC50 [5]: 160 nM
- inhibition [6]: 91%
- Activity [7]: Non-Toxic
- IC50 [21]: 4470 nM
- Activity (Mus musculus [8]; time 7 day): 642.1 µM
- Activity (Mus musculus [9]): Active
- Cmax [18]: 2250 ng/mL
- Activity (Mus musculus [10]): Active
- Activity (Mus musculus [11]): Active
- AUC(0-inf) [19]: 18700 ng·h/mL
- Activity (HK-2 [12]): Toxic
- Activity (Mus musculus [13]): 319.1 µM

SMILES: C/C(=C\Cc1c(O)ccc2c1OC(c1ccsc1)CC2=O)C(=O)O (stereo not given)
- IC50 [5]: 650 nM

SMILES: O=C(O)/C=C/Cc1cccc2c1OC(c1cccs1)CC2=O (stereo not given)
- IC50 [5]: 2500 nM

SMILES: O=C(O)/C=C/Cc1cccc2c1OC(c1ccsc1)CC2=O (stereo not given)
- IC50 [5]: 3590 nM

SMILES: CC(C)=CCc1c(O)ccc2c1OC(c1csc3ccccc13)CC2=O (stereo not given)
- inhibition at 5 µM [14]: 32%

SMILES: C/C(=C\Cc1cccc2c1OC(c1ccsc1)CC2=O)C(=O)O (stereo not given)
- IC50 [5]: 2180 nM
